According to the NIST ThermoML archive (doi:10.1016/j.fluid.2018.07.015):

Assay: xn = mol fraction of the nth substance listed
Conditions: 101 kPa, Liquid, Vibrating tube method

C=O [methanal] + O
mass density [kg/m3]
Conditions | x1 = 0.0545 | x1 = 0.05456 | x1 = 0.09849 | x1 = 0.1544 | x1 = 0.2019 | x1 = 0.2573
291.15 K | – | 1025.9 | 1045.9 | 1070.2 | 1091.8 | 1112.8
298.15 K | 1024.6 | – | 1044.7 | 1069.9 | 1089.4 | 1111.3
313.15 K | 1019.6 | – | 1039.7 | 1066.9 | 1086.8 | 1109.9
